Assay results: ChEMBL document CHEMBL1221210, “A Cdc7 kinase inhibitor restricts initiation of DNA replication and has antitumor activity” (Nat Chem Biol, 2008); call rule not given here

Legend:
MCF7 [1] = experiment: Induction of cell cycle arrest in human MCF7 cells expressing p53 gene assessed as residual DNA synthesis at 5 uM after 24 hrs by FACS analysis; assay type: functional
NHDF [2] = experiment: Induction of cell cycle arrest in thymidine deficient NHDF assessed as DNA synthesis in S-phase at 5 uM after 2hrs FACS analysis; assay type: cell-based; conditions: human
[3] = Antiproliferative activity against p53 deficient human A2780/E6 cells after 72 hrs by proliferative assay; assay type: functional, cell-based; conditions: A2780/E6, 72 h
MCF7 [4] = experiment: Induction of cell cycle arrest in human MCF7 cells expressing p53 gene assessed as accumulation at subG1 phase at 10 uM after 24hrs by FACS analysis; assay type: functional
HCT-15 [5] = experiment: Induction of cell cycle arrest in human HCT15 cells expressing p53 gene assessed as residual DNA synthesis at 10 uM after 24 hrs by FACS analysis; assay type: functional
HeLa [6] = experiment: Inhibition of DNA replication in human HeLa cells assessed as interorigin distance between homogenous DNA fibers at 2 uM after 2 hrs by immunofluorescence assay; assay type: functional
HeLa [7] = experiment: Inhibition of DNA replication in human HeLa cells assessed as interorigin distance between homogenous DNA fibers at 5 uM after 4 hrs by immunofluorescence assay; assay type: functional
A2780 [8] = experiment: Induction of cell cycle arrest in human A2780 cells expressing p53 gene assessed as residual DNA synthesis at 10 uM after 24 hrs by FACS analysis; assay type: functional
PC-3 [9] = experiment: Induction of cell cycle arrest in human PC3 cells expressing p53 gene assessed as residual DNA synthesis at 10 uM after 24 hrs by FACS analysis; assay type: functional
HeLa [10] = experiment: Induction of cell cycle arrest in p53 deficient human HeLa cells assessed as accumulation at subG1 phase at 10 uM after 24hrs by FACS analysis; assay type: functional
[11] = biological target: Serine/threonine-protein kinase TAO3 (Homo sapiens, UniProt Q9H2K8); experiment: Inhibition of TAO3
HeLa [12] = experiment: Inhibition of DNA replication in human HeLa cells assessed as increase in replication fork speed per min at 2 uM after 2 hrs by immunofluorescence assay; assay type: functional
U2OS = experiment: Induction of cell cycle arrest in human U2OS cells expressing p53 gene assessed as residual DNA synthesis at 5 uM after 24 hrs by FACS analysis; assay type: functional
NHDF [13] = experiment: Induction of cell cycle arrest in NHDF expressing p53 gene assessed as accumulation at subG1 phase at 0.1 uM after 24hrs by FACS analysis; assay type: cell-based; conditions: human
HCT-116 [14] = experiment: Induction of cell cycle arrest in human HCT116 cells expressing p53 gene assessed as accumulation at subG1 phase at 5 uM after 24hrs by FACS analysis; assay type: functional
COLO 205 [15] = experiment: Induction of cell cycle arrest in p53 deficient human COLO205 cells assessed as accumulation at subG1 phase at 5 uM after 24hrs by FACS analysis; assay type: functional
COLO 205 [16] = experiment: Induction of cell cycle arrest in p53 deficient human COLO205 cells assessed as residual DNA synthesis at 10 uM after 24 hrs by FACS analysis; assay type: functional
[17] = Antiproliferative activity against p53 deficient human HCT116/E6 cells after 72 hrs by proliferative assay; assay type: functional, cell-based; conditions: HCT116-E6, 72 h
HCT-116 [18] = experiment: Antiproliferative activity against human HCT116 cells expressing p53 gene after 72 hrs by proliferative assay; assay type: functional, cell-based; conditions: HCT-116, 72 h
HeLa [19] = experiment: Inhibition of DNA replication in human HeLa cells assessed as increase in replication fork speed per min at 20 uM after 4 hrs by immunofluorescence assay; assay type: functional
[20] = biological target: Serine/threonine-protein kinase Nek6 (Homo sapiens, UniProt Q9HC98); experiment: Inhibition of Nek6
SF-268 = experiment: Induction of cell cycle arrest in p53 deficient human SF268 cells assessed as residual DNA synthesis at 5 uM after 24 hrs FACS analysis; assay type: functional
K562 = experiment: Antiproliferative activity against p53 deficient human K562 cells after 72 hrs; assay type: functional, cell-based; conditions: K562, 72 h
Mus musculus = experiment: AUC in SCID mouse carrying human HL60 cells at 30 mg/kg, iv after 10 hrs; assay type: ADME, organism-based, HL-60; parameters: time < 10 hr, dose 30 mg/kg, route intravenous; conditions: in vivo
NHDF [21] = experiment: Induction of cell cycle arrest in NHDF assessed as accumulation at subG1 phase at 5 uM after 24hrs by propidium-iodine staining based FACS analysis; conditions: human
PC-3 [22] = experiment: Induction of cell cycle arrest in human PC3 cells expressing p53 gene assessed as residual DNA synthesis at 5 uM after 24 hrs by FACS analysis; assay type: functional
SF-539 [23] = experiment: Induction of cell cycle arrest in human SF539 cells expressing p53 gene assessed as residual DNA synthesis at 5 uM after 24 hrs by FACS analysis; assay type: functional
OVCAR-8 = experiment: Induction of cell cycle arrest in p53 deficient human OVCAR8 cells assessed as accumulation at subG1 phase at 10 uM after 24 hrs by FACS analysis; assay type: functional
[24] = biological target: Tyrosine-protein kinase ZAP-70 (Homo sapiens, UniProt P43403); experiment: Inhibition of ZAP70
HeLa [25] = experiment: Antiproliferative activity against p53 deficient human HeLa cells after 72 hrs; assay type: functional, cell-based
SW480 [26] = experiment: Antiproliferative activity against p53 deficient human SW480 cells after 72 hrs by proliferative assay; assay type: functional, cell-based; conditions: SW480, 72 h
SW480 [27] = experiment: Induction of cell cycle arrest in p53 deficient human SW480 cells assessed as residual DNA synthesis at 10 uM after 24 hrs by FACS analysis; assay type: functional
HeLa [28] = experiment: Inhibition of DNA replication in human HeLa cells assessed as increase in replication fork speed per min at 2 uM after 6 hrs by immunofluorescence assay; assay type: functional
Jurkat = experiment: Induction of cell cycle arrest in p53 deficient human Jurkat cells assessed as accumulation at subG1 phase at 5 uM after 24hrs by FACS analysis; assay type: functional
PC-3 [29] = experiment: Antiproliferative activity against human PC3 cells expressing p53 gene after 72 hrs by proliferative assay; assay type: functional, cell-based; conditions: PC-3, 72 h
SW480 [30] = experiment: Induction of cell cycle arrest in p53 deficient human SW480 cells assessed as accumulation at subG1 phase at 5 uM after 24hrs by FACS analysis; assay type: functional
[31] = Induction of cell cycle arrest in p53 deficient human A2780/E6 cells as accumulation at subG1 phase at 5 uM after 24hrs by FACS analysis; assay type: functional
A2780 [32] = experiment: Induction of cell cycle arrest in human A2780 cells expressing p53 gene assessed as residual DNA synthesis at 5 uM after 24 hrs by FACS analysis; assay type: functional
HCT-15 [33] = experiment: Induction of cell cycle arrest in human HCT15 cells expressing p53 gene assessed as accumulation at subG1 phase at 5 uM after 24hrs by FACS analysis; assay type: functional
SF-539 [34] = experiment: Antiproliferative activity against human SF539 cells expressing p53 gene after 72 hrs by proliferative assay; assay type: functional, cell-based; conditions: SF-539, 72 h

Sequence of Serine/threonine-protein kinase Nek6 (Q9HC98 whole entry): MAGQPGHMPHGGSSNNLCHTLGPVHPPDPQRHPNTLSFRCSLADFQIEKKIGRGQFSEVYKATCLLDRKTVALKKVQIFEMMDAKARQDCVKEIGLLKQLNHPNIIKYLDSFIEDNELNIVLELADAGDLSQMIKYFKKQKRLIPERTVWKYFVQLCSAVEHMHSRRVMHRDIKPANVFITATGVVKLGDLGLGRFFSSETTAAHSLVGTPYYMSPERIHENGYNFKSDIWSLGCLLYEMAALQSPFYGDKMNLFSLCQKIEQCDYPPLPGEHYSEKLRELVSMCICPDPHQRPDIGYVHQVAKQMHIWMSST
Sequence of Tyrosine-protein kinase ZAP-70 (P43403 whole entry): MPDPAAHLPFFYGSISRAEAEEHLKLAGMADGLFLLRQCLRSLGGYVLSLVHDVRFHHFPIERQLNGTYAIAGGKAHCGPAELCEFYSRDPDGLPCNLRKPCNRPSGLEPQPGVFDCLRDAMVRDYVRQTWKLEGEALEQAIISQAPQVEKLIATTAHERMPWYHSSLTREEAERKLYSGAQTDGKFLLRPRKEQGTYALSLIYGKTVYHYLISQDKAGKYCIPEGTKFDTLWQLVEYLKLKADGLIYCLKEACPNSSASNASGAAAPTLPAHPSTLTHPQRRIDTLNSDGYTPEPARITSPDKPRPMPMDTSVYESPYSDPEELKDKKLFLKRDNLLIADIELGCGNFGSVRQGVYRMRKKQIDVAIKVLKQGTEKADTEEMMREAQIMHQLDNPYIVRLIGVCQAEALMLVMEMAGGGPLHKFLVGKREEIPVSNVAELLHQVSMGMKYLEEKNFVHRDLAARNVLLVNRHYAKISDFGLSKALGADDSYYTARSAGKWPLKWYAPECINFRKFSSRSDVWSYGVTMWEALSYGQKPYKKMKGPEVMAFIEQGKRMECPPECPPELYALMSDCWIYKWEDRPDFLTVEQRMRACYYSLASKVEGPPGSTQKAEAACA
Sequence of Serine/threonine-protein kinase TAO3 (Q9H2K8 whole entry): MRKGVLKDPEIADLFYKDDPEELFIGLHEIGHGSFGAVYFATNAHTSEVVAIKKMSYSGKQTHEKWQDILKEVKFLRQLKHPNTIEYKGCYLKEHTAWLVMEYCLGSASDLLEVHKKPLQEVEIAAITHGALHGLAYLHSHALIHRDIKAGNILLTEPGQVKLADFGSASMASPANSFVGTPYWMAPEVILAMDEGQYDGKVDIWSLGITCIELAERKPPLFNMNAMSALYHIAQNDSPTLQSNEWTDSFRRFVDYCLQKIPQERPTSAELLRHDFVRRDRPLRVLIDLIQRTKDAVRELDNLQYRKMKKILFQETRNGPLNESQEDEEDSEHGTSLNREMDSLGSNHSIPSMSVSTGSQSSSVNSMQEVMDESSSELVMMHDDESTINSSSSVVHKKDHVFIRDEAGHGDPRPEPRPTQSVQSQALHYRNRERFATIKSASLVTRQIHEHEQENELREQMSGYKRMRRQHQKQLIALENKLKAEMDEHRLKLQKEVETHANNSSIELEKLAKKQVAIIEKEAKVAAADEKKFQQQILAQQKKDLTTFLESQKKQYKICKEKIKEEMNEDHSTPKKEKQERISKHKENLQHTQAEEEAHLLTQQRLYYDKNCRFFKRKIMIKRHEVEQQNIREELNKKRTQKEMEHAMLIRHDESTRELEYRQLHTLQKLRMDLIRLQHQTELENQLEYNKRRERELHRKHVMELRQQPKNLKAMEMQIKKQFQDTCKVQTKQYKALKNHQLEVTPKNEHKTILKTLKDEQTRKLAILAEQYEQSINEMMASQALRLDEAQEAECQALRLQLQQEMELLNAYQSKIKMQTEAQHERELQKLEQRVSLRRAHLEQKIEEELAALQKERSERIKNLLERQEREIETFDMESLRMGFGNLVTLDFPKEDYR

O=C1NCCc2[nH]c(-c3ccncc3)cc21
Activity (MCF7 [1]): <3%
Activity (NHDF [2]): Not Active
IC50 [3]: 1500 nM
Activity (MCF7 [4]): <3%
Activity (HCT-15 [5]): <3%
Activity (HeLa [6]): 225 kilobase
Activity (HeLa [7]): 288 kilobase
Activity (A2780 [8]): <3%
Activity (PC-3 [9]): <3%
Activity (HeLa [10]): 10%
IC50 [11]: > 10000 nM
Activity (HeLa [12]): 1.8 kilobase
Activity (U2OS): <3%
Activity (NHDF [13]): Active
Activity (HCT-116 [14]): 3%
Activity (COLO 205 [15]): 10%
Activity (COLO 205 [16]): 3%
IC50 [17]: 1480 nM
IC50 (HCT-116 [18]): 970 nM
Activity (HeLa [19]): 2.32 kilobase
IC50 [20]: > 10000 nM
Activity (SF-268): <3%
IC50 (K562): 5870 nM
AUC (Mus musculus): 71 µM·h
Activity (NHDF [21]): 1.6%
Activity (PC-3 [22]): 3%
Activity (SF-539 [23]): 3%
Activity (OVCAR-8): 3%
IC50 [24]: > 10000 nM
IC50 (HeLa [25]): 1830 nM
IC50 (SW480 [26]): 2670 nM
Activity (SW480 [27]): <3%
Activity (HeLa [28]): 1.81 kilobase
Activity (Jurkat): >20%
IC50 (PC-3 [29]): 4590 nM
Activity (SW480 [30]): >20%
Activity [31]: >20%
Activity (A2780 [32]): <3%
Activity (HCT-15 [33]): 3%
IC50 (SF-539 [34]): 2340 nM
